# Test results as given in US8828678B2, “Self-immolative probes for enzyme activity detection” (Enzo Life Sciences, Inc., priority 2010, dated 2014).
# Test: Chemical reduction of CD-8 and enzymatic (HRP) luminescence testing of the reduction product
# Details: 200 μM CD-8, 1 mM sodium hydrosulfite, 1 hour room temperature, then H2O2, 4-iodophenol
# Experimental: 100 μl of 200 μM CD-8 (dissolved in 1×PBS buffer) with (1 mM) or without sodium hydrosulfite was incubated in a 96 black microplate (Greiner®) at room temperature for 1 hour. Also included was a positive control of 100 μl of 50 μM of isoluminol dissolved in 1×PBS buffer. A 4:1 volumetric mixture (1.25 μL) of stabilized H2O2 (Roche Diagnotics GmbH: Reference number: 11 582 950 001, component 2) and 200 mM of 4-idophenol was then added. Before adding horseradish peroxidase (HRP), the background luminescence was recorded; after adding 2 μL of 50 μM HRP, the luminescence was immediately recorded on a Biotek® plate reader.
structure (smiles),measurement,value
O=C(Nc1ccc2c(=O)[nH][nH]c(=O)c2c1)OCc1ccc([N+](=O)[O-])cc1 [CD-8],luminescence / release of isoluminol after sodium hydrosulfite,triggering the self-immolative release of isoluminol
